Test results as given in US8809341B2, “2,4-pyrimidinediamine compounds and uses as anti-proliferative agents” (Rigel Pharmaceuticals, Inc., priority 2003, dated 2014).

Tests used:
[1] = system: H1299 cells; assay: in vitro antiproliferation assay, H1299 (lung); assay type: cell-based; details: H1299 (lung) cells
Procedure, shortened: (§1)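 IC50 values came from standard antiproliferation testing in cultured tumour cells; the A549 and H1299 lines are of lung origin.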

[2] = system: A549 cells; assay: in vitro antiproliferation assay, A549 (lung); assay type: cell-based; details: A549 (lung) cells
Procedure, shortened: as §1

| SMILES | IC50 ([1]; in vitro antiproliferation) [µM] | IC50 ([2]; in vitro antiproliferation) [µM] | IC50 ([1]; antiproliferation) [µM] | IC50 ([2]; antiproliferation) [µM] |
| --- | --- | --- | --- | --- |
| Oc1c(Cl)cc(Nc2ncc(F)c(Nc3ccc(OC(F)(F)F)c(Cl)c3)n2)cc1Cl [compound 829] | ≤ 20 | ≤ 20 |  |  |
| COc1ccc(Nc2nc(Nc3cc(Cl)c(OC)c(Cl)c3)ncc2F)cc1Cl [compound 831] | > 20 | > 20 |  |  |
| COc1c(Cl)cc(Nc2ncc(F)c(Nc3ccc(OC(F)(F)F)c(Cl)c3)n2)cc1Cl [compound 832] | > 20 | ≤ 20 |  |  |
| COc1c(Cl)cc(Nc2ncc(F)c(Nc3ccc(Cl)c(Cl)c3)n2)cc1Cl [compound 834] | ≤ 20 | ≤ 20 |  |  |
| COc1cc(Nc2nc(Nc3cc(CO)cc(CO)c3)ncc2F)cc(OC)c1 [compound 842] | ≤ 20 | ≤ 20 |  |  |
| COc1ccc(Nc2nc(Nc3cc(CO)cc(CO)c3)ncc2F)cc1Cl [compound 843] | ≤ 20 | ≤ 20 |  |  |
| OCc1cc(CO)cc(Nc2ncc(F)c(Nc3ccc(Cl)c(Cl)c3)n2)c1 [compound 844] | ≤ 20 | ≤ 20 |  |  |
| COc1cc(Nc2nc(Nc3cc(OC)cc(C(F)(F)F)c3)ncc2F)cc(OC)c1 [compound 849] | ≤ 20 | ≤ 20 |  |  |
| CNC(=O)COc1cccc(Nc2ncc(F)c(N(C)c3cc(OC)cc(OC)c3)n2)c1 [compound 850] | > 20 | > 20 |  |  |
| COc1cc(Nc2ncc(F)c(N(C)c3cc(OC)cc(OC)c3)n2)cc(OC)c1 [compound 852] | ≤ 20 | ≤ 20 |  |  |
| COc1cc(OC)cc(N(C)c2nc(Nc3ccc(OC)c(Cl)c3)ncc2F)c1 [compound 853] | > 20 | > 20 |  |  |
| COc1cc(OC)cc(N(C)c2nc(Nc3ccc(Cl)c(OC)c3)ncc2F)c1 [compound 854] | > 20 | > 20 |  |  |
| COc1cc(Nc2ncc(F)c(Nc3ccc(OC)c(OC)c3)n2)cc(OC)c1 [compound 856] | ≤ 20 | ≤ 20 |  |  |
| COc1cc(Nc2nc(Nc3cccc(N4CCN(C(C)=O)CC4)c3)ncc2F)cc(OC)c1 [compound 861] | ≤ 20 | ≤ 20 |  |  |
| COc1ccc(Nc2nc(Nc3cccc(N4CCN(C(C)=O)CC4)c3)ncc2F)cc1OC [compound 862] | ≤ 20 | ≤ 20 |  |  |
| COc1ccc(Nc2nc(Nc3ccc(N4CCN(C(C)=O)CC4)cc3)ncc2F)cc1OC [compound 863] | ≤ 20 | ≤ 20 |  |  |
| COc1ccc(N(C)c2nc(Nc3cc(C)cc(C)c3)ncc2F)cc1OC [compound 864] | ≤ 20 | ≤ 20 |  |  |
| COc1cc(Nc2ncc(F)c(N(C)c3ccc(OC)c(OC)c3)n2)cc(OC)c1 [compound 865] | ≤ 20 | ≤ 20 |  |  |
| COc1cc(Nc2nc(Nc3ccc(N4CCN(C(C)=O)CC4)cc3)ncc2F)cc(OC)c1 [compound 866] | ≤ 20 | ≤ 20 |  |  |

| SMILES | IC50 ([1]; in vitro antiproliferation) [µM] | IC50 ([2]; in vitro antiproliferation) [µM] | IC50 ([1]; antiproliferation) [µM] | IC50 ([2]; antiproliferation) [µM] |
| --- | --- | --- | --- | --- |
| COc1ccc(N(C)c2nc(Nc3cccc(-c4cnco4)c3)ncc2F)cc1OC [compound 867] | ≤ 20 | > 20 |  |  |
| CNC(=O)COc1cccc(Nc2ncc(F)c(N(C)c3ccc(OC)c(OC)c3)n2)c1 [compound 870] |  |  | > 20 | > 20 |
| CNC(=O)c1ccc(Nc2ncc(F)c(Nc3ccc(OC)c(OC)c3)n2)cc1Cl [compound 871] |  |  | ≤ 20 | ≤ 20 |
| CNC(=O)c1ccc(Nc2ncc(F)c(Nc3cc(OC)cc(OC)c3)n2)cc1Cl [compound 872] |  |  | ≤ 20 | ≤ 20 |
| CNC(=O)c1ccc(Nc2ncc(F)c(N(C)c3ccc(OC)c(OC)c3)n2)cc1Cl [compound 875] |  |  | ≤ 20 | ≤ 20 |
| CNS(=O)(=O)c1ccc(Nc2ncc(F)c(Nc3ccc(OC)c(OC)c3)n2)cc1OC [compound 879] |  |  | ≤ 20 | ≤ 20 |
| CNS(=O)(=O)c1ccc(Nc2ncc(F)c(Nc3cc(OC)cc(OC)c3)n2)cc1OC [compound 880] |  |  | ≤ 20 | ≤ 20 |
| CNS(=O)(=O)c1ccc(Nc2nc(Nc3cc(OC)cc(OC)c3)ncc2F)cc1OC [compound 884] |  |  | ≤ 20 | ≤ 20 |
| Oc1cccc(Nc2nc(Nc3cccc(-c4ncco4)c3)ncc2F)c1 [compound 885] |  |  | ≤ 20 | ≤ 20 |
| COc1ccc(Nc2nc(Nc3cccc(-c4ncon4)c3)ncc2F)cc1OC [compound 886] |  |  | ≤ 20 | ≤ 20 |
| COC(=O)c1cc(Nc2ncc(F)c(Nc3ccc(OC)c(OC)c3)n2)cc(-c2ncco2)c1 [compound 887] |  |  | ≤ 20 | ≤ 20 |
| CC(=O)c1cc(Nc2ncc(F)c(Nc3cccc(O)c3)n2)cc(-c2ncco2)c1 [compound 888] |  |  | ≤ 20 | ≤ 20 |
| COc1ccc(Nc2nc(Nc3cc(-c4ncco4)cc(C(F)(F)F)c3)ncc2F)cc1OC [compound 889] |  |  | ≤ 20 | ≤ 20 |
| Oc1cccc(Nc2nc(Nc3cccc(-c4ncon4)c3)ncc2F)c1 [compound 890] |  |  | ≤ 20 | ≤ 20 |
| COC(=O)c1cc(Nc2ncc(F)c(Nc3cc(C(=O)OC)cc(-c4ncco4)c3)n2)cc(-c2ncco2)c1 [compound 891] |  |  | > 20 | > 20 |
| Fc1cnc(Nc2cc(-c3ncco3)cc(C(F)(F)F)c2)nc1Nc1cc(-c2ncco2)cc(C(F)(F)F)c1 [compound 892] |  |  | ≤ 20 | ≤ 20 |
| Cc1cc(Nc2ncc(F)c(Nc3ccc(N4CCN(C)CC4)c(C)c3)n2)ccc1N1CCN(C)CC1 [compound 894] |  |  | ≤ 20 | ≤ 20 |
| COc1cc(Nc2ncc(F)c(Nc3cc(C)cc(C)c3)n2)cc(OC)c1OC [compound 895] |  |  | ≤ 20 | ≤ 20 |
| Cc1cc(C)cc(Nc2nc(Nc3cc(C)c(Cl)c(Cl)c3)ncc2F)c1 [compound 896] |  |  | ≤ 20 | ≤ 20 |

| SMILES | IC50 ([1]; in vitro antiproliferation) [µM] | IC50 ([2]; in vitro antiproliferation) [µM] | IC50 ([1]; antiproliferation) [µM] | IC50 ([2]; antiproliferation) [µM] |
| --- | --- | --- | --- | --- |
| Cc1cc(C)cc(Nc2nc(Nc3cc(CO)cc(CO)c3)ncc2F)c1 [compound 897] |  |  | ≤ 20 | ≤ 20 |
| Cc1cc(C)cc(Nc2nc(Nc3cc(Cl)cc(Cl)c3)ncc2F)c1 [compound 898] |  |  | > 20 | > 20 |
| Cc1cc(C)cc(Nc2nc(Nc3cc(Cl)c(Cl)c(Cl)c3)ncc2F)c1 [compound 899] |  |  | ≤ 20 | ≤ 20 |
| Cc1cc(C)cc(Nc2nc(Nc3cc(C)c(Cl)c(C)c3)ncc2F)c1 [compound 900] |  |  | > 20 | > 20 |
| CNC(=O)COc1c(C)cc(Nc2ncc(F)c(Nc3cc(OC)cc(OC)c3)n2)cc1C [compound 902] |  |  | ≤ 20 | ≤ 20 |
| COc1cc(Nc2ncc(F)c(N(C)c3ccc(OC)c(Cl)c3)n2)cc(OC)c1 [compound 903] |  |  | ≤ 20 | ≤ 20 |
| COc1ccc(N(C)c2nc(Nc3cc(C)c(OC)c(Cl)c3)ncc2F)cc1Cl [compound 904] |  |  | > 20 | > 20 |
| CNC(=O)COc1c(C)cc(Nc2ncc(F)c(N(C)c3ccc(OC)c(Cl)c3)n2)cc1C [compound 905] |  |  | ≤ 20 | ≤ 20 |
| CNC(=O)COc1cccc(Nc2ncc(F)c(N(C)c3ccc(OC)c(Cl)c3)n2)c1 [compound 906] |  |  | ≤ 20 | ≤ 20 |
| COc1ccc(N(C)c2nc(Nc3ccc(C)cc3)ncc2F)cc1Cl [compound 907] |  |  | ≤ 20 | > 20 |
| COc1cc(N(C)c2nc(Nc3cc(C)cc(C)c3)ncc2F)ccc1Cl [compound 909] |  |  | ≤ 20 | ≤ 20 |
| CNC(=O)COc1cccc(Nc2ncc(F)c(N(C)c3ccc(Cl)c(OC)c3)n2)c1 [compound 910] |  |  | > 20 | ≤ 20 |
| Cc1cc(C)cc(Nc2ncc(F)c(N(C)c3cc(C)c(Cl)c(C)c3)n2)c1 [compound 912] |  |  | > 20 | > 20 |
| CNC(=O)COc1cccc(Nc2ncc(F)c(N(C)c3cc(C)c(Cl)c(C)c3)n2)c1 [compound 913] |  |  | ≤ 20 | ≤ 20 |
| Cc1cc(N(C)c2nc(Nc3cccc(-c4cnco4)c3)ncc2F)cc(C)c1Cl [compound 914] |  |  | > 20 | > 20 |
| CNC(=O)COc1ccc(Nc2nc(Nc3ccc(OC)c(Cl)c3)ncc2F)cc1Cl [compound 917] |  |  | ≤ 20 | ≤ 20 |
| CNC(=O)c1ccc(Nc2ncc(F)c(N(C)c3cc(C)c(Cl)c(C)c3)n2)cc1Cl [compound 921] |  |  | ≤ 20 | ≤ 20 |
| COc1cc(Nc2nc(Nc3cccc(-c4ncco4)c3)ncc2F)cc(OC)c1OC [compound 932] |  |  | ≤ 20 | ≤ 20 |
| COc1ccc(Nc2ncc(F)c(Nc3ccc(OCCCN4CCOCC4)c(C)c3)n2)cc1OC [compound 945] |  |  | ≤ 20 | ≤ 20 |
